Experimental findings from US20100160356A1, “NOVEL CYCLOBUTYL COMPOUNDS AS KINASE INHIBITORS” (priority 2006, published 2010) are described below.

For orientation: IC50 means the concentration that gives 50% inhibition. By melting point is commonly meant the temperature, or range, at which the solid turns liquid.

The target in one data set is T1, SGK1 (Homo sapiens, UniProt O00141).
T1 sequence (O00141 1-431): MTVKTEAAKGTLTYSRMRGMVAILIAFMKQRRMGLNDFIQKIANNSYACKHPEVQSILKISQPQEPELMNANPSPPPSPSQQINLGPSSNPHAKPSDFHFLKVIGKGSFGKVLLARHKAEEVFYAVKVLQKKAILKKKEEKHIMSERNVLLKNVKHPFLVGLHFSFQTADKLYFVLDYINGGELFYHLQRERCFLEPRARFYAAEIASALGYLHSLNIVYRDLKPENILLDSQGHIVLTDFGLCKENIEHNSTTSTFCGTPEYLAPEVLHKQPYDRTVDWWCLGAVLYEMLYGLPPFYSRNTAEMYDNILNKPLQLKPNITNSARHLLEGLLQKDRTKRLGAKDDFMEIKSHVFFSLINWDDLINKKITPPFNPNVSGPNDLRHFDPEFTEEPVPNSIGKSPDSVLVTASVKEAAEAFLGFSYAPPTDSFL
The data set is described as follows: Inhibition of SGK1 (flashplate assay). The format is biochemical. Conditions: flashplate method. The procedure: (§1) The test plates used are 384-well flashplate microtitre plates from Perkin Elmer (USA). The components of the kinase reaction are pipetted into the assay plate. The SGK1 kinase is incubated for 3 hr. with radioactively labelled ^33P-ATP in the presence and absence of test substances in a total volume of 100 μl at room temperature together with biotinylated poly(Glu, Tyr)4:1. The reaction is terminated using 25 μl of a 200 mM EDTA solution. After incubation for a further 30 min at room temperature, the supernatants are removed by suction, and the wells are washed three times with 100 μl of 0.9% NaCl solution each time. The radioactivity is measured using a Topcount scintillation counter (PerkinElmer, USA). IC50 values are calculated using the RS1 computer program.

In the next data set the target is T2, TGFβR1 (Homo sapiens, UniProt P36897).
T2 sequence (P36897 34-503): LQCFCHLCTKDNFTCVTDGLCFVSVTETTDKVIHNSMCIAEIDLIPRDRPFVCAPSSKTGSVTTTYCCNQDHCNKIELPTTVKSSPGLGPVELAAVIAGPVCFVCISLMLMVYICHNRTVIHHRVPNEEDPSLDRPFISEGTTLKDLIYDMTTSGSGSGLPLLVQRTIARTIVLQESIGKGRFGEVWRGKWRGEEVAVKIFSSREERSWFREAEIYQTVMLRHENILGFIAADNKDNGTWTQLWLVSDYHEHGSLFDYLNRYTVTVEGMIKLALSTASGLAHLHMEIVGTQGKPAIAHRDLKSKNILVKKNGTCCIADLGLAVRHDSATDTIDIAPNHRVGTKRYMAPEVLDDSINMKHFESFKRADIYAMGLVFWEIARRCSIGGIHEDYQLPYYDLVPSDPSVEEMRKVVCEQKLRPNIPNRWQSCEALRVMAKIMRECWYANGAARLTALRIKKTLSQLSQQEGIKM
The data set is described as follows: Inhibition of TGFβR1 (flashplate assay). The class given is biochemical. The note with it: flashplate method. The method, boiled down: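 Kinase was incubated 45 min with 33P-ATP and biotinylated substrate, with or without test substances, then stopped with EDTA. Incorporated radioactivity was counted by scintillation in a flashplate format. IC50 values were calculated from the counts.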

Data set [1] has as its target T3, FAK (focal adhesion kinase) (Homo sapiens, UniProt Q05397).
T3 construct: endogenous in cells; host or cells: Calu-6 or HT-29
The data set is described as follows: Inhibition of FAK (ELISA assay), FAK phosphorylation in cells. The class given is cell-based. Conditions: human cells with FAK amplification. In short, it runs like this:
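Cells pretreated 45 min with increasing compound concentrations, with a reference inhibitor series as internal control. FAK from lysates captured by specific antibody on ELISA plate or LUMINEX beads; tyrosine phosphorylation detected with anti-phosphotyrosine antibody by chemiluminescence or fluorescence.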
On the technique in general: An ELISA detects its analyte on a solid surface through an enzyme-linked reagent.

A further data set concerns the target T4, IGF1 receptor (IGF1R) (Homo sapiens, UniProt P08069).
T4 construct: endogenous in cells; host or cells: MCF-7 or Calu-6
In words: Inhibition of IGF1R (ELISA assay), IGF1-stimulated autophosphorylation in cells. The note with it: human tumour cells stimulated with IGF1, read-out: IC50 IGF (ELISA). The format is cell-based. The method, boiled down:
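Cells were preincubated 45 min with increasing compound concentrations, then stimulated 5 min with IGF1. Phospho-IGF1R in lysates was captured by a receptor-specific antibody and detected with anti-phosphotyrosine antibody via chemiluminescence ELISA or fluorescent LUMINEX read-out.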

For the next data set, the target named is IGF1R (Homo sapiens, UniProt P08069). The data set is described as follows: Inhibition of IGF1R (flashplate assay). The format is biochemical. Conditions: flashplate method. As to the method:
as §1, with “are 96-well” for “are 384-well”, “The IGF1R” for “The SGK1”, “for 1” for “for 3”

The target of another data set is TIE2 (Homo sapiens, UniProt Q02763). The data set is described as follows: Inhibition of TIE2 (flashplate assay). The note with it: flashplate method. The format is biochemical. The method, boiled down: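 Radiometric flashplate kinase assay: TIE2 incubated 3 h at room temperature with ³³P-ATP and biotinylated poly(Glu,Tyr) 4:1, with or without test compound. Reaction stopped with EDTA, wells washed, incorporated radioactivity counted by scintillation; IC50 calculated from the data.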
TIE2, sequence (Q02763 23-1124, species assumed): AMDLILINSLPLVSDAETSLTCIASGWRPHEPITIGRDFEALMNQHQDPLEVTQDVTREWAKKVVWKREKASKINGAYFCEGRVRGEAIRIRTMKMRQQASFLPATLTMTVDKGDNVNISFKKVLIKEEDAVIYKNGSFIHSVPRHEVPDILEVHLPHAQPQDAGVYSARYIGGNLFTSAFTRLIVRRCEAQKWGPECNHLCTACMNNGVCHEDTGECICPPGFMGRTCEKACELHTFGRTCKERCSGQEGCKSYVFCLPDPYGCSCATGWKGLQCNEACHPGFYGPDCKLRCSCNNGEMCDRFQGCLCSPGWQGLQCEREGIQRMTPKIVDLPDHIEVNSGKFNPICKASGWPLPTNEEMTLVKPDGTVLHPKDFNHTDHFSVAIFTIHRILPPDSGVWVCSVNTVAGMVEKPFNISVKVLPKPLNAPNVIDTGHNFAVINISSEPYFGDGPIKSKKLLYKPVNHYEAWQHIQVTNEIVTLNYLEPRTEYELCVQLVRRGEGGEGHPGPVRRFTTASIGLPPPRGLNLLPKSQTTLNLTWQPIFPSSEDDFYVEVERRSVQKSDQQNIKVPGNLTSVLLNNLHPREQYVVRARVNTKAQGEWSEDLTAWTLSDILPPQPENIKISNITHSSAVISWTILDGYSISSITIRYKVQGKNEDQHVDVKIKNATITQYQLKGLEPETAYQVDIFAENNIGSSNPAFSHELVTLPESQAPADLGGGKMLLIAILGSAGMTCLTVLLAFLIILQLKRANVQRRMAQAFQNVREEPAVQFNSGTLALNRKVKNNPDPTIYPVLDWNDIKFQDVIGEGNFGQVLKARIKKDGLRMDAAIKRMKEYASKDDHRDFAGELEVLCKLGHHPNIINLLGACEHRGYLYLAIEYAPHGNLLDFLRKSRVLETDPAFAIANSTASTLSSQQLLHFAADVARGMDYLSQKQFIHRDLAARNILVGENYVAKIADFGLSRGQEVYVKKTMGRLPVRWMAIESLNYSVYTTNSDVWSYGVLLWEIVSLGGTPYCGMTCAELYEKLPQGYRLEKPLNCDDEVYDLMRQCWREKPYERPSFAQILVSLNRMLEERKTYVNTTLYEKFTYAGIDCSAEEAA

In the next data set the target is VEGF-2 (Homo sapiens, UniProt P35968). In words: Inhibition of VEGF-2 (flashplate assay). The note with it: flashplate method. The class given is biochemical. In short, it runs like this: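 Kinase incubated 3 hr at room temperature with ^33P-ATP and biotinylated poly(Glu, Tyr)4:1, with or without test substance. Stopped with EDTA, wells washed after 30 min; incorporated radioactivity counted by scintillation and IC50 calculated.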
VEGF-2, sequence (P35968 20-1356): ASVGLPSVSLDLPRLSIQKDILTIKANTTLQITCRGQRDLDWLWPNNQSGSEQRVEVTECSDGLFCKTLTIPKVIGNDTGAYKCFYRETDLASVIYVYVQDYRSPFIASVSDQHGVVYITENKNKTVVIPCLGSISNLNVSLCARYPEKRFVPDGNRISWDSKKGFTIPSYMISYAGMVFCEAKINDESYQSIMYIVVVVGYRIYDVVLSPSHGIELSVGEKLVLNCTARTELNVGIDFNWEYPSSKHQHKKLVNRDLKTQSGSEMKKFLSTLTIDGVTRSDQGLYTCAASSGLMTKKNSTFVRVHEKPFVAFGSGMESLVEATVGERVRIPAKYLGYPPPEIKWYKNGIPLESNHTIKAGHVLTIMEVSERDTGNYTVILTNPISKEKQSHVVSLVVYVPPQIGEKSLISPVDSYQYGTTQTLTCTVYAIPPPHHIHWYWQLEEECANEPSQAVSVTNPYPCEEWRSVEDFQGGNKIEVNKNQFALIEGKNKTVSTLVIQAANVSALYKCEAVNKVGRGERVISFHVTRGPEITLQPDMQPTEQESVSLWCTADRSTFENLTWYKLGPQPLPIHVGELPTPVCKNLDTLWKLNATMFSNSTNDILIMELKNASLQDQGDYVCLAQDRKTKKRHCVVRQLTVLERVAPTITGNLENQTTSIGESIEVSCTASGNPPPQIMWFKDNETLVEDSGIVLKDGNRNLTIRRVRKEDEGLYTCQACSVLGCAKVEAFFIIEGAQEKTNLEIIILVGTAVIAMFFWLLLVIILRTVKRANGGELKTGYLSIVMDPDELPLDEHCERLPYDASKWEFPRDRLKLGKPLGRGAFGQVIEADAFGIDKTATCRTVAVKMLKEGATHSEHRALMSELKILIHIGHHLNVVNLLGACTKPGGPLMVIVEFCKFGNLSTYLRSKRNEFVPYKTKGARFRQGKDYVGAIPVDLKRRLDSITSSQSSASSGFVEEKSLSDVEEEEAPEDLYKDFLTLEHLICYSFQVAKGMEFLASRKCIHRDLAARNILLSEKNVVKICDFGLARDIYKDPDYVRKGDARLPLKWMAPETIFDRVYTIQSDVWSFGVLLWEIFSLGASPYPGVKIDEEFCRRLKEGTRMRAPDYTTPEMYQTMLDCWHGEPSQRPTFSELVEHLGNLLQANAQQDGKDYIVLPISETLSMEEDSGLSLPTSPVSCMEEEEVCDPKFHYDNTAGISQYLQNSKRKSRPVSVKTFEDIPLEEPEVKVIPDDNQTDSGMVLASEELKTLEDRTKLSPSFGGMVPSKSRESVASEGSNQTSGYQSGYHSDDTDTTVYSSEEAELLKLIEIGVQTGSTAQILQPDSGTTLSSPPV

The target of another data set is PDGFRβ (Homo sapiens, UniProt P09619). In words: Inhibition of PDGFRβ (flashplate assay). The note with it: flashplate method. The format is biochemical. The method, boiled down:
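Autophosphorylation of PDGFRβ kinase with ^33P-ATP, ± test compound, 3 hr at room temperature in flashplates. Stopped with EDTA, washed, and bound radioactivity counted by scintillation. IC50 calculated from the counts.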

A further data set concerns CHK. The data set is described as follows: Inhibition of CHK (flashplate method). The format is biochemical.
For another data set, the target named is T5, insulin receptor (InsR) (Homo sapiens, UniProt P06213).
T5 construct: endogenous in cells; host or cells: HepG2
In words: Inhibition of InsR (ELISA assay), insulin-stimulated autophosphorylation in cells. The format is cell-based. The note with it: human cells stimulated with insulin. As to the method: Cultivated human cells which express the insulin receptor (InsR) (for example HepG2) are stimulated using human insulin, the natural ligand of InsR. The stimulation induces autophosphorylation of tyrosine residues in the cytoplasmatic InsR domain, which triggers signal transduction cascades, which initiate various biological reactions of the cells. The amount of phosphorylated InsR is determined by a receptor-specific capture ELISA or an analogous LUMINEX assay. The InsR from cell lysates is bound to a 96-well ELISA plate or LUMINEX beads by means of a specific antibody (“capturing”), and the tyrosine phosphorylation is detected using a biotin-labelled anti-phosphotyrosine antibody and a streptavidin-peroxidase conjugate by a chemiluminescence method or by means of a fluorescence-labelled anti-phosphotyrosine antibody. For determination of the activity of kinase inhibitors, cells are pretreated with increasing concentrations of these compounds for 45 min and subsequently stimulated using insulin for 5 min. As internal control, the biological activity of the ligand insulin is checked, and a concentration series of a reference inhibitor is measured.

The target of another data set is Met (Homo sapiens, UniProt P08581). In words: Inhibition of Met (flashplate method). The format is biochemical.

T3 sequence (Q05397 whole entry): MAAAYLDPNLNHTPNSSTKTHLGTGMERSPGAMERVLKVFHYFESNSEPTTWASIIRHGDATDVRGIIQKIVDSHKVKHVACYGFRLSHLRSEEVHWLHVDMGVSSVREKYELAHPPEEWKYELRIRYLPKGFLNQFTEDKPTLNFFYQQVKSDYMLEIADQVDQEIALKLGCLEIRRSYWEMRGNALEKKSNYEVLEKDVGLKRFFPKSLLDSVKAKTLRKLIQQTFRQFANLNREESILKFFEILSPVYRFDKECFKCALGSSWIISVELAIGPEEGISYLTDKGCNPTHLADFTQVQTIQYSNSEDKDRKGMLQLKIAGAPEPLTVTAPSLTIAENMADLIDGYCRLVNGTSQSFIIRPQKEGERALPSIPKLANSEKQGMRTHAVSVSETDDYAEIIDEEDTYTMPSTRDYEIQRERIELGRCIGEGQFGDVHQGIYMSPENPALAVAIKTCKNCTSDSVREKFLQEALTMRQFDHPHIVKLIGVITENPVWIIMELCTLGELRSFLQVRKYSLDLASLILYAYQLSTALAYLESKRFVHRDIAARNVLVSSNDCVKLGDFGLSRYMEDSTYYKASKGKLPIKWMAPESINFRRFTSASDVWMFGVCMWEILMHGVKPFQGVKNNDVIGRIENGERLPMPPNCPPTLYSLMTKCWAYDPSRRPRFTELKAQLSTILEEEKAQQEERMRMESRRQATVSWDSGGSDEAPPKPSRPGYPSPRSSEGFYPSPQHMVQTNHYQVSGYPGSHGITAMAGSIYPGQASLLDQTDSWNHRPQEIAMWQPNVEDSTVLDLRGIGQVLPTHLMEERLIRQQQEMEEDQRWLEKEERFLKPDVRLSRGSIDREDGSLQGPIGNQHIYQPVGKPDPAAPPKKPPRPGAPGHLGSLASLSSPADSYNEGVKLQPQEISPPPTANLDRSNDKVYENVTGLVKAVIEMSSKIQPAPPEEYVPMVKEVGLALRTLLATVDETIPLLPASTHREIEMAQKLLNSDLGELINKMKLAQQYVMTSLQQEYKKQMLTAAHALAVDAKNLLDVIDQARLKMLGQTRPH
T4 sequence (P08069 31-1367): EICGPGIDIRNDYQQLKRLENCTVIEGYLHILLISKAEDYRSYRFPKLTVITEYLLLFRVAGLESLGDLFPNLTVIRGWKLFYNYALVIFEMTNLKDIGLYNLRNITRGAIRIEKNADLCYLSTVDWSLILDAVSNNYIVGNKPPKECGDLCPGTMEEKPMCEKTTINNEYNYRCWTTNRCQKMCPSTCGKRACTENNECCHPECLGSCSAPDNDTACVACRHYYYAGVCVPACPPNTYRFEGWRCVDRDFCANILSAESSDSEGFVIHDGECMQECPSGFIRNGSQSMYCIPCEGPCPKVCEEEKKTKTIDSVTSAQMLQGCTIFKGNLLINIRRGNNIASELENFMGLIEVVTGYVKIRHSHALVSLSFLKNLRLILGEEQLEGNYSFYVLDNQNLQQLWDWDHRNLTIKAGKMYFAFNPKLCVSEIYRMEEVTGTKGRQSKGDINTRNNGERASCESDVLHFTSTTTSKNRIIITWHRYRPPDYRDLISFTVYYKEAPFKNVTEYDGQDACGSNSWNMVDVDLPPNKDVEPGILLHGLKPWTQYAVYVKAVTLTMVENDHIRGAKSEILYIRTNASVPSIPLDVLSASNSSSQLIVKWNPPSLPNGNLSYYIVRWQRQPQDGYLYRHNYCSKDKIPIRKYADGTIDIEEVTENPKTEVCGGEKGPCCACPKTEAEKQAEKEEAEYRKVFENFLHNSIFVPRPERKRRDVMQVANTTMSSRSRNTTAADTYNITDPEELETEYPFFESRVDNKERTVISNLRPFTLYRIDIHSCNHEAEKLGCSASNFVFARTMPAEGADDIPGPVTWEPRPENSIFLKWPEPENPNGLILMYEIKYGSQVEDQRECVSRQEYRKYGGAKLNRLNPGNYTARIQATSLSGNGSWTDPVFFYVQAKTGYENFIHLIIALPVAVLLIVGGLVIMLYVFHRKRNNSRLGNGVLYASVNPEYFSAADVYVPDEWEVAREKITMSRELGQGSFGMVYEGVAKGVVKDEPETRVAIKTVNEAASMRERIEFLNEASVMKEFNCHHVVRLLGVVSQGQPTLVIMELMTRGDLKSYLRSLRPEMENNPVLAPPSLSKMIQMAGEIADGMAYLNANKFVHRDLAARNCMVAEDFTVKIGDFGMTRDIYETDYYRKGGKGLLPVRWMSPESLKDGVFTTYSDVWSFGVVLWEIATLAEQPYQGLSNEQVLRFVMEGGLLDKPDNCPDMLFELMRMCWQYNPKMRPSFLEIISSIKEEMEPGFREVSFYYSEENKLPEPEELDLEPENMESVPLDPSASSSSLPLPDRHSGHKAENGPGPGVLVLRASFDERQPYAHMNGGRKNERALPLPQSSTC
IGF1R, sequence (P08069 31-1367, species assumed): as the sequence (P08069 31-1367) above

For `NCC1CC(n2cc(-c3cccs3)c3c(N)ncnc32)C1` (centres unmarked) [Compound 41], the IC50 turned out to be 1600 nM against SGK1; 2700 nM against TGFβR1; 3800 nM in [1]; 6200 nM on IGF1 receptor (IGF1R); 5600 nM on IGF1R; 4800 nM on TIE2. In addition, at VEGF-2, the 50% inhibitory concentration (IC50) worked out at 1200 nM.

As to `NCC1CC(n2cc(-c3cccc(NCc4ccccc4)c3)c3c(N)ncnc32)C1` (centres unmarked) [Compound 25], the melting point was in the range of 204 to 206 °C. Moreover, the midpoint of inhibition on SGK1, the IC50, lay at 3600 nM. In addition, at TGFβR1, the IC50 turned out to be 3700 nM. Besides, at IGF1 receptor (IGF1R), the IC50 came to 3000 nM. At IGF1R, this compound returned a half-maximal inhibitory concentration (IC50) of 820 nM. This compound returned an IC50 at TIE2 of 1500 nM. Further, the IC50 at VEGF-2 amounted to 390 nM. The same compound came in with a concentration for half-maximal inhibition (IC50) at PDGFRβ of 1200 nM.

Turning to `NCC1CC(n2cc(-c3ccco3)c3c(N)ncnc32)C1` (centres unmarked) [Compound 38], the IC50 on SGK1 was 2600 nM; in data set [1], 18000 nM; at IGF1 receptor (IGF1R), 17000 nM; at VEGF-2 it was 2300 nM; in the data set on CHK, 8800 nM.

With `C[Si](C)(C)COc1cccc(-c2cn(C3CC(CN)C3)c3ncnc(N)c23)c1` (centres unmarked) [Compound 9], the IC50 was found to be 14000 nM in [1], 570 nM on IGF1 receptor (IGF1R), 130 nM against IGF1R and 5500 nM against insulin receptor (InsR).

On to `C[Si](C)(COc1cccc(-c2cn(C3CC(CN)C3)c3ncnc(N)c23)c1)c1ccccc1` (centres unmarked) [Compound 8], for which the IC50 stood at 1100 nM against Met; 16000 nM in data set [1]; 810 nM at IGF1 receptor (IGF1R); 320 nM at IGF1R; 9500 nM on insulin receptor (InsR).
